Data reported in patent US20180055868A1, “METHODS AND COMPOSITIONS FOR STIMULATING BONE REGENERATION” (New York University, priority 2012, published 2018).

Experiments:
[1] = test system: peripheral blood monocytes; conditions: effect mediated by adenosine acting at A1 receptors; cited from earlier work
[2] = test system: trephined calvarium bone defect; assay: Trephined 3 mm calvarial defect, collagen matrix reinjected daily, microCT bone regeneration (Example 2); format: in vivo, mice; conditions: 8 weeks post trephination; for concentration achieving maximal effect on bone regeneration / dose dependence of effect on bone regeneration: FIG. 3; for effect on bone regeneration: microCT, FIG. 2
Experimental: In FIG. 2B, the percentage bone regeneration is calculated as the percent of the original defect that was now filled with bone.
(§1) A 3 mm portion of the calvarium was trephined with a drill followed by implantation of a collagen matrix soaked in either a vehicle or a pharmacologic agent and/or receptor antagonists to promote bone regeneration. The matrix was reinjected daily with the agent for periods ranging from 2-8 weeks prior to harvest of the mice and examination of the calvaria. […] Experiments were performed with specific agonists and antagonists at varying doses, and specific receptor agonists were tested on corresponding knockout mice to better confirm the role of the indicated receptor.
(§2) Some of the calvaria were decalcified, and histochemical and immunohistochemical staining and microscopic analyses were performed. Other calvaria were cleaned of adherent tissue and subject to microCT analysis for bone defect size and percent regeneration measures.

[3] = test system: trephined calvarium bone defect in A2BKO mice; assay: Calvarial defect bone regeneration in A2B receptor knockout (A2BKO) mice; format: in vivo; conditions: 8 weeks post trephination, FIG. 5
Experimental: as §1

[4] = test system: osteoblasts and osteoclasts in the regenerating bone; assay: Histochemical and immunohistochemical staining of regenerating calvarial bone sections; format: in vivo, mice; conditions: for TRAP stained osteoclasts in the regenerating bone / alkaline phosphatase positive osteoblasts in the regenerating bone / RANK+ cells in the regenerating bone / RANKL+ cells in the regenerating bone / osteoprotegerin+ cells in the regenerating bone: cells/hpf vs control; for TRAP stained osteoclasts in the regenerating bone / alkaline phosphatase positive osteoblasts in the regenerating bone: FIG. 7; for bone formation shown histologically: histology of calvaria, FIG. 9; for RANK+ cells in the regenerating bone / RANKL+ cells in the regenerating bone / osteoprotegerin+ cells in the regenerating bone: immunohistochemistry, FIG. 8
Excerpt: Shown in FIG. 7A are representative medium powered fields of calvarial sections stained immunohistochemically for alkaline phosphatase (left hand column, a marker for osteoblasts). Shown in the next column of figures are sections stained histochemically for tartrate resistant acid phosphatase (a marker for osteoclasts). Arrows in these figures point to osteoblasts (first column) or osteoclasts (second column).
Paraffin embedded sections are stained immunohistochemically for RANK, RANKL or osteoprotegerin. Slides are imaged and positive cells (brown) are enumerated in three fields. Shown on the left are representative medium power sections of immunohistochemcically stained sections.
Staining of decalcified bone sections for osteoclasts (TRAP staining) and osteoblasts (alkaline phosphatase staining) was performed. Immunostaining for other markers of osteoclast (cathepsin K) lineage and other molecules of interest (e.g. semaphorin 4D, plexin-B1, nuclear b-catenin) were performed.
as §2

A3 adenosine receptor = target: T1, A3 adenosine receptor (Homo sapiens, UniProt P0DMS8); conditions: cited from earlier work
T1 sequence (P0DMS8 1-318): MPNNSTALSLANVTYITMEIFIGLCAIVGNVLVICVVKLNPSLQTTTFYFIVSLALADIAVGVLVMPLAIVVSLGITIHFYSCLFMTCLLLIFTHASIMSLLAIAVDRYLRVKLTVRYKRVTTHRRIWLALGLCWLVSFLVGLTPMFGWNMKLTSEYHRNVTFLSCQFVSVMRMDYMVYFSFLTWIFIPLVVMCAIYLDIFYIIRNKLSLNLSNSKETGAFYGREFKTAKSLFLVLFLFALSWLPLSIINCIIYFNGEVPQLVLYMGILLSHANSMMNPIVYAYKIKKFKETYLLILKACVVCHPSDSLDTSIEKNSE

defect in mouse calvaria = assay: 3 mm mouse calvarial bone defect with drug-soaked collagen matrix, microCT (Example 1); format: in vivo, C57B6 mice; conditions: collagen matrix in 3 mm calvarial defect, 8 weeks
Experimental: . Under general anesthesia a 3 mm in diameter defect is drilled into the skull of C57B6 mice. […]. The matrix is then reinjected with 100 μl of these agents daily for 8 weeks before harvest. […] FIG. 1B represents the percentage bone regeneration calculated as the percent of the original defect that was now filled with bone. Shown are the means (+SD) of results obtained in 3 animals for each condition. Results were analyzed by ANOVA. ***p<0.001
A 3 mm in diameter defect was created in mouse calvaria into which was fit a collagen matrix. […].

| Structure (SMILES) | TRAP stained osteoclasts in the regenerating bone [4] | alkaline phosphatase positive osteoblasts in the regenerating bone [4] | bone formation shown histologically [4] | RANK+ cells in the regenerating bone [4] | RANKL+ cells in the regenerating bone [4] | osteoprotegerin+ cells in the regenerating bone [4] | concentration achieving maximal effect on bone regeneration [2] [µM] | dose dependence of effect on bone regeneration [2] | effect on bone regeneration [2] | also measured |
| --- | --- | --- | --- | --- | --- | --- | --- | --- | --- | --- |
| CN(Cc1cnc2nc(N)nc(N)c2n1)c1ccc(C(=O)N[C@@H](CCC(=O)O)C(=O)O)cc1 [Methotrexate] |  |  |  |  |  |  |  |  |  | giant cell formation [1]: increases giant cell formation |
| Nc1nc(NCCc2ccc(O)cc2)nc2nc(-c3ccco3)nn12 [ZM241385] |  |  |  |  |  |  |  |  |  | effect of antagonist on bone regeneration promoted by dipyridamole ([2]; FIG. 4): blocks the effect; effect of antagonist on bone regeneration promoted by the A2A agonist CGS21680 ([2]; FIG. 4): blocks the effect |
| CCNC(=O)[C@H]1O[C@@H](n2cnc3c(N)nc(NCCc4ccc(CCC(=O)O)cc4)nc32)[C@H](O)[C@@H]1O [CGS21680] | reduce | increase | bone formation | reduction | reduction | increase | 1 | dose-dependent | stimulate bone regeneration | effect of the agent on bone regeneration upon deletion of the A2B receptor [3]: reverses the effect |
| Nc1ncnc2c1ncn2[C@@H]1O[C@H](CO)[C@@H](O)[C@H]1O [adenosine] |  |  |  |  |  |  |  |  |  | affinity for adenosine (A3 adenosine receptor): low-micromolar range |
| OCCN(CCO)c1nc(N2CCCCC2)c2nc(N(CCO)CCO)nc(N3CCCCC3)c2n1 [dipyridamole] | reduce | increase | bone formation | reduction | reduction | increase | 1 | dose-dependent | promotes bone regeneration | effect on bone regeneration (defect in mouse calvaria): stimulates bone regeneration |
| CNC(=O)[C@H]1O[C@@H](n2cnc3c(NCc4cccc(I)c4)ncnc32)[C@H](O)[C@@H]1O [adenosine A3 receptor agonist] |  |  |  |  |  |  | 1 | dose-dependent | no effect |  |
| CCCn1c(=O)c2[nH]c(C3CCCC3)nc2n(CCC)c1=O [DPCPX, 8-Cyclopentyl-1,3-dipropylxanthine] | reduce | increase | bone formation | reduction | reduction | increase | 1 | dose-dependent | stimulate bone regeneration | effect of the agent on bone regeneration upon deletion of the A2B receptor [3]: reverses the effect |
| N#Cc1c(N)nc(SCC(N)=O)c(C#N)c1-c1ccc(OCC2CC2)cc1 [BAY606583] |  |  |  |  |  |  | 1 | dose-dependent | stimulate bone regeneration |  |
